Here are results for 10 molecules from patent US12679848B2, “Plasma kallikrein inhibitors” (Merck Sharp & Dohme LLC, priority 2020, dated 2026).

Broadly, the IC50 is the concentration that gives 50% inhibition.

Assay [1] addresses T1, Human plasma kallikrein (Homo sapiens, UniProt P03952).
T1 construct: yields a heavy chain (371 amino acids) and a light chain (248 amino acids); The active site of plasma kallikrein is contained in the light chain; purchased Enzyme Research Laboratories
Kind of assay: Plasma Kallikrein Assay. The settings on record: purified Human plasma kallikrein 0.5 nM, substrate Acetyl-K-P-R-AFC, HEPES pH 7.4; read-out: PKal IC50. In kind it is biochemical. In a few lines: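 Purified human plasma kallikrein at 0.5 nM final with substrate Acetyl-K-P-R-AFC at […], in 50 mM HEPES pH 7.4, 150 mM NaCl, 5 mM CaCl2, 0.1% PEG 8000, at rt or 37° C after enzyme-inhibitor equilibration. IC50 from four-parameter logistic fit of fluorescence rate; Ki via Cheng-Prusoff.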

The target in assay [2] is human factor XIa (Homo sapiens, UniProt P03951). Nature of the assay: Factor XIa Assay. In kind it is biochemical. The note with it: human factor XIa 0.04 nM, substrate GPR-AFC, 30 min pre-incubation, 25° C., pH 7.4; read-out: FXIa IC50.
human factor XIa, sequence (P03951 388-625 limits assumed): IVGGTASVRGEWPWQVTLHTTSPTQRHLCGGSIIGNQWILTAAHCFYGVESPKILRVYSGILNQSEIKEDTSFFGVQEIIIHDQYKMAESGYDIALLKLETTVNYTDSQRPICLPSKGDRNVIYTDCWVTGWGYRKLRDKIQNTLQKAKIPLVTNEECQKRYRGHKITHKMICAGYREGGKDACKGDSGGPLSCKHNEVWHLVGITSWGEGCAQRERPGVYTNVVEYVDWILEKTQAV
human factor XIa, sequence (P03951 19-387 partner limits assumed): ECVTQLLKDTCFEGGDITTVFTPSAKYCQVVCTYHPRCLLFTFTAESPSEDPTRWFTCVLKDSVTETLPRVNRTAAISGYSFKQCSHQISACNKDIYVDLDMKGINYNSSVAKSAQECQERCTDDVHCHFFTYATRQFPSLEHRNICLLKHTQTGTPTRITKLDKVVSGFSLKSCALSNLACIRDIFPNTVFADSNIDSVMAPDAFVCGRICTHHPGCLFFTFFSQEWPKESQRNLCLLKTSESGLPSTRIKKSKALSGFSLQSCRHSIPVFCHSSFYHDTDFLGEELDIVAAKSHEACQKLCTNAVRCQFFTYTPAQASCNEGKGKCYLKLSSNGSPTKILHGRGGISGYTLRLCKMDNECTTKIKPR

T1 sequence (P03952 391-638 limits assumed): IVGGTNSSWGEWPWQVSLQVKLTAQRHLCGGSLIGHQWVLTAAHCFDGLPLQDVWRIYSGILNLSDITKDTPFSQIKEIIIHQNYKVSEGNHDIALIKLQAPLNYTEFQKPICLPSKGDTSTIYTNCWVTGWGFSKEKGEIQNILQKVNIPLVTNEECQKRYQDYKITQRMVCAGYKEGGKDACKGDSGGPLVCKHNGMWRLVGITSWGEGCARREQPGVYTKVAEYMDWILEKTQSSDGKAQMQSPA
T1 sequence (P03952 20-390 partner limits assumed): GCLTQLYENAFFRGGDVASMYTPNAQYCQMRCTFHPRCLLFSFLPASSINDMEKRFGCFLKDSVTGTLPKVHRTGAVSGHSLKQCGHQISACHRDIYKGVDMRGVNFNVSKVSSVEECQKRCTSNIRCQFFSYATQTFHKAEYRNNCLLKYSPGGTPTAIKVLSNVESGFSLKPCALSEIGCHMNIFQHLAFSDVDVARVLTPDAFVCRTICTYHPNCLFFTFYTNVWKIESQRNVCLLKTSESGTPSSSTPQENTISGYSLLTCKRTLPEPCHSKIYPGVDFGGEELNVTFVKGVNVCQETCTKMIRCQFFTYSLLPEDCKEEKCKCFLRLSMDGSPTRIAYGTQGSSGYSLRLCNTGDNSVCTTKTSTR

Regarding `Nc1c(C(=O)N2CCC[C@@]3(C2)OC(=O)Nc2ccc(Cl)c(F)c23)cnn1-c1cc(F)ccc1F` [Example 76, (R)-1'-(5-Amino-1-(2,5-difluorophenyl)-1H-pyrazole-4-carbonyl)-6-chloro-5-fluorospiro[benzo[d][1,3]oxazine-4,3'-piperidin]-2(1H)-one], the results for the IC50 in assay [1] and in assay [2] were 29.5 nM and 1060 nM, respectively.
In the same order, the values of `Nc1c(C(=O)N2CCC[C@@]3(C2)OC(=O)Nc2ccc(Cl)c(F)c23)cnn1-c1ccccc1C1CC1` [Example 95, (R)-1'-(5-Amino-1-(2-cyclopropylphenyl)-1H-pyrazole-4-carbonyl)-6-chloro-5-fluorospiro[benzo[d][1,3]oxazine-4,3'-piperidin]-2(1H)-one] are 10 nM and 305 nM.
Taken in the same sequence, the figures for `Nc1c(C(=O)N2CCC[C@@]3(C2)OC(=O)Nc2ccc(Cl)c(F)c23)cnn1-c1cc(F)ccc1Cl` [Example 78, (R)-1'-(5-Amino-1-(2-chloro-5-fluorophenyl)-1H-pyrazole-4-carbonyl)-6-chloro-5-fluorospiro[benzo[d][1,3]oxazine-4,3'-piperidin]-2(1H)-one] were 35.9 nM and 813 nM.
On to `Nc1c(C(=O)N2CCC[C@@]3(C2)OC(=O)Nc2ccc(Cl)c(F)c23)cnn1C1CCCC1` [Example 22, (R)-1'-(5-Amino-1-cyclopenty1-1H-pyrazole-4-carbonyl)-6-chloro-5-fluorospiro[benzo[d][1,3]oxazine-4,3'-piperidin]-2(1H)-one], for which the results for the IC50 in assay [1] and in assay [2] were 15.3 nM and 1120 nM, respectively.
In the same order, the values of `Cc1ccccc1-n1ncc(C(=O)N2CCC[C@@]3(C2)OC(=O)Nc2ccc(Cl)c(F)c23)c1N` [Example 64, (R)-1'-(5-Amino-1-(o-toly1)-1H-pyrazole-4-carbonyl)-6-chloro-5-fluorospiro[benzo[d][1,3]oxazine-4,3'-piperidin]-2(1H)-one] are 28.1 nM and 1310 nM.
Take `Cc1ccc(C)c(-n2ncc(C(=O)N3CCC[C@@]4(C3)OC(=O)Nc3ccc(Cl)c(F)c34)c2N)c1` [Example 87, (R)-1'-(5-Amino-1-(2,5-dimethylphenyl)-1H-pyrazole-4-carbonyl)-6-chloro-5-fluorospiro[benzo[d][1,3]oxazine-4,3'-piperidin]-2(1H)-one]: the IC50 is 26.4 nM in assay [1] and 1170 nM in assay [2].
Take `Nc1c(C(=O)N2CCC[C@@]3(C2)OC(=O)Nc2ccc(Cl)c(F)c23)cnn1-c1ccc(Cl)cc1Cl` [Example 65, (R)-1'-(5-Amino-1-(2,4-dichlorophenyl)-1H-pyrazole-4-carbonyl)-6-chloro-5-fluorospiro[benzo[d][1,3]oxazine-4,3'-piperidin]-2(1H)-one]: the IC50 in assay [1] worked out at 37.5 nM; in assay [2] it was 160 nM.
For the molecule `Cc1ccc(-n2ncc(C(=O)N3CCC[C@@]4(C3)OC(=O)Nc3ccc(Cl)c(F)c34)c2N)c(C)c1` [Example 86, (R)-1'-(5-Amino-1-(2,4-dimethylphenyl)-1H-pyrazole-4-carbonyl)-6-chloro-5-fluorospiro[benzo[d][1,3]oxazine-4,3'-piperidin]-2(1H)-one], the figures for the IC50 in assay [1] and in assay [2] were 46 nM and 645 nM, respectively.
For the molecule `Nc1c(C(=O)N2CCC[C@@]3(C2)OC(=O)Nc2ccc(Cl)c(F)c23)cnn1Cc1cncnc1` [Example 51, (R)-1'-(5-Amino-1-(pyrimidin-5-ylmethyl)-1H-pyrazole-4-carbonyl)-6-chloro-5-fluorospiro[benzo[d][1,3]oxazine-4,3'-piperidin]-2(1H)-one], the IC50 in assay [1] amounted to 9.8 nM; in assay [2] it was 996 nM.
Taken in the same sequence, the figures for `Cn1c(-c2ccccc2)nnc1-n1ncc(C(=O)N2CCC[C@@]3(C2)OC(=O)Nc2ccc(Cl)c(F)c23)c1N` [Example 30, (R)-1'-(5-Amino-1-(4-methyl-5-phenyl-4H-1,2,4-triazol-3-y1)-1H-pyrazole-4-carbonyl)-6-chloro-5-fluorospiro[benzo[d][1,3]oxazine-4,3'-piperidin]-2(1H)-one] were 18.4 nM and 2830 nM.
